Measurements as given in PMC5238430, “Prebiotic galactooligosaccharides activate mucin and pectic galactan utilization pathways in the human gut symbiont Bacteroides thetaiotaomicron” (Scientific Reports, 2017).

Target: T1, BtGH53 (BT_4668), GH53 endo-beta-(1->4)-galactanase (Bacteroides thetaiotaomicron, UniProt Q89YR3)
T1 sequence (Q89YR3 23-353): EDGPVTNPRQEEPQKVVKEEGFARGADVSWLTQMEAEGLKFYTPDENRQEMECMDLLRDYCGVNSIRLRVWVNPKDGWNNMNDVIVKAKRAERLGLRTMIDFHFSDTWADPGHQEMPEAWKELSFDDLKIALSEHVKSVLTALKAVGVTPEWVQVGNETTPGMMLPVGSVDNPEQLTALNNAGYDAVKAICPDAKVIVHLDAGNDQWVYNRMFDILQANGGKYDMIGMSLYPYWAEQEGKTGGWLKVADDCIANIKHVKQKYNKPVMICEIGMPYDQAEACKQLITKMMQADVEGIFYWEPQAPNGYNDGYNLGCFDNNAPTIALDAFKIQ
Test: TLC and HPAEC-PAD of hydrolysis products
Format: biochemical
Conditions: component of purified GOS mixture (TS0903), not tested singly; 20 mM Tris pH 7.5, 150 mM NaCl, 37 °C, 16 h

## OC[C@H]1O[C@@H](O[C@@H]2[C@H](O)[C@@H](O)[C@H](O[C@H]3[C@H](O)[C@@H](O)C(O)O[C@@H]3CO)O[C@@H]2CO)[C@H](O)[C@@H](O)[C@H]1O (stereo partly drawn) [compound 9, β-D-Galp-(1 → 4)-β-D-Galp-(1 → 4)-β-D-Glc]
  TLC and HPAEC-PAD of hydrolysis products: BtGH53 hydrolyzes linear DP3 and higher GOS compounds
